# Measured values from patent publication US20260200964A1, “MONOSACCARIDES, PHARMACEUTICAL COMPOSITIONS, AND DIAGNOSTIC AND THERAPEUTIC APPLICATIONS” (Surio Therapeutics Co., LTD., priority 2022, published 2026).
# Tests used:
# A549 cells = assay: Flow cytometry analysis of cell labeling (azido labeling efficiency); format: cell-based; conditions: Homo sapiens; A549 cells (lung); azido compound 25 μM, 48 h; mean fluorescence of live cells compared with PBS negative control
# Description: (§1) Cells (2.0×10^6 cells/mL, 2 mL) were seeded in a 6-well culture plate and attached at 37° C. overnight. After washed thrice with PBS, the cells were incubated with an azido compound (25 μM) at 37° C. for 48 h. After washed thrice with PBS, the cells were incubated with DBCO-biotin (50 μM) in 500 μL serum free DMEM at 37° C. for 1 h. The cells were washed thrice with PBS and then incubated with streptavidin-Cy5 (5 μg/mL) in 500 μL serum free DMEM at 37° C. for 1 h. The cells were washed thrice with PBS, followed by addition of 300 μL 1×trypsin/EDTA for digestion. The lifted cells were transferred to a 1.5 mL EP tube, centrifuge at 1,000 rpm for 3 min, and washed with PBS once. Finally, 500 μL PBS containing 4% PFA was added to the cell pellet to fix the cells. The cell suspension was transferred to a flow tube and mixed with 10 μL of a PI working solution (50 μg/mL) at room temperature for 30 min before being subjected to flow cytometry.
# (§2) Flow cytometry was used to characterize the labeling efficiency of a compound provided herein. After cells were labeled with an azido group, DBCO-biotin was added to specifically react with the azido group. Avidin-Cy5 was added bind to the cell surface biotin for a flow cytometry analysis. Dead cells were stained with PI and excluded from the analysis. Results were presented as the mean fluorescence of live cells, compared with PBS as a negative control and Ac4ManNAz (AAM) as a positive control, Ac4ManNAz (AAM, CAS: 361154-30-5).
# [1] = Compound stability in a biological matrix (mouse plasma); format: in vitro ADME; conditions: 10 μg/mL, 37° C., LC-MS/MS
# Description: (§3) A compound was dissolved in DMSO as a 1 mg/mL stock solution. An ACN solution of the compound at 100 μg/mL was prepared from the stock solution, 10 μL of which was added to a biological matrix (90 μL) to the final concentration of 10 μg/mL for the compound. The mixtures of the compound in a biological matrix were incubated at 37° C. for 0, 0.5, 1, or 4 h. At each time point, ACN (900 μL) was added to a mixture. After the mixture was centrifuged at 15,000 rpm for 5 min, the supernatant was mixed with the same volume of H2O (1% TFA) and then analyzed by LC-MS/MS. The results are summarized in Table 3, wherein Cbz-AAM is (2R,3S,4R,5S)-6-((4-((S)-6-acetamido-2-(((benzyloxy)carbonyl)amino)hexan-amido)phenyl)(phenyl)methoxy)-2-(acetoxymethyl)-5-(2-azidoacetamido)tetrahydro-2H-pyran-3,4-diyl diacetate.
# [2] = Compound stability in a biological matrix (human plasma); format: in vitro ADME; conditions: 10 μg/mL, 37° C., LC-MS/MS
# Description: as §3
# MDA-MB-231 = assay: Flow cytometry analysis of cell labeling (azido labeling efficiency); format: cell-based; conditions: MDA-MB-231 (breast), azido compound 25 μM, 48 h
# Description: as §1, §2
# OVCAR3 = assay: as above; format: cell-based; conditions: OVCAR3 (ovarian), azido compound 25 μM, 48 h
# Description: as §1, §2
# [3] = mean fluorescence of live cells compared with Ac4ManNAz (AAM) positive control
# [4] = mean fluorescence of live cells compared with PBS negative control
Compound Remaining (%) Mouse 1 h [1] [%],Compound Remaining (%) Mouse 4 h [1] [%],Compound Remaining (%) Human 1 h [2] [%],Compound Remaining (%) Human 4 h [2] [%],Structure (SMILES),activity at 25 µM (A549 cells) [%],Labeling Efficiency AAM % (MDA-MB-231; [3]) [%],Labeling Efficiency PBS % (MDA-MB-231; [4]) [%],Labeling Efficiency AAM % (OVCAR3; [3]) [%],Labeling Efficiency PBS % (OVCAR3; [4]) [%]
93,73,97,86,"CC(=O)NCCCC[C@H](NC(C)=O)C(=O)Nc1ccc(C(OC2OC(COC(C)=O)C(OC(C)=O)C(OC(C)=O)C2NC(=O)CN=[N+]=[N-])c2cncs2)cc1 (stereo partly drawn) [Compound A16, 1-O-(1-(Thiazol-5-yl)-1-(4-(2(S),6-diacetamidohexanamido)phenyl)methyl)-2-(2-azidoacetylamino)-2-deoxy-3,4,6-tri-O-acetyl-D-mannopyranoside]",136,,,,
98,87,100,90,"CC(=O)NCCCC[C@H](NC(=O)OCc1ccccc1)C(=O)Nc1ccc(C(OC2OC(COC(C)=O)C(OC(C)=O)C(OC(C)=O)C2NC(=O)CN=[N+]=[N-])c2cn(C)cn2)cc1 (stereo partly drawn) [Compound A2, 1-O-(1-(1-methylimidazol-4-yl)-1-(4-(6-acetamido-2(S)-(benzyloxycarbonylamino)-hexanamido)phenyl)methyl)-2-(2-azidoacetylamino)-2-deoxy-3,4,6-tri-O-acetyl-D-mannopyranoside]",250,,,,
76,23,61,16,"CC(=O)NCCCC[C@H](NC(=O)OCc1ccccc1)C(=O)Nc1ccc(C(OC2OC(COC(C)=O)C(OC(C)=O)C(OC(C)=O)C2NC(=O)CN=[N+]=[N-])c2ccnn2C)cc1 (stereo partly drawn) [Compound A8, 1-O-(1-(2-methylpyrazol-3-yl)-1-(4-(6-acetamido-2(S)-(benzyloxycarbonyl-amino)hexanamido)phenyl)methyl)-2-(2-azidoacetylamino)-2-deoxy-3,4,6-tri-O-acetyl-D-mannopyranoside]",196,31,209,24,132
